Usually CC50 stands for the concentration that lowers cell viability or growth by half. Low values mean greater toxicity to the cells, high ones lower toxicity to the cells. The melting point is the temperature, or range, at which the solid turns liquid.

A short description of data set [1]: Cytotoxicity on mouse spleen cells (CCK-8 assay). The class given is cell-based, BALB/c mice. To be noted: female, fresh mouse spleen cells (splenic lymphocytes), BALB/c mouse spleen cells. How it is done: (§1) Female BALB/c mice were sacrificed by cervical dislocation, and their spleens were aseptically removed. After cell debris, mononuclear cell suspensions were prepared, and clumps were removed. Erythrocytes were depleted with ammonium chloride buffer solution. Lymphocytes were washed and resuspended in RPMI 1640 medium supplemented with 10% FBS, penicillin (100 U/mL), and streptomycin ([…]).
We used the Cell Counting Kit-8 (CCK-8) assay to test cytotoxicity. In brief, fresh spleen cells were obtained from female BALB/c mice (18–20 g). Spleen cells (1 × 10^6 cells) were seeded in triplicate in 96-well flat plates and cultured at 37 °C for 48 h, with or without compounds of various concentrations, in a humidified and 5% CO2-containing incubator. A certain amount of CCK-8 was added to each well during the last 8–10 h of culture. At the end of the culture, we use a microplate reader (Bio-Rad 650) to measure the OD value at 450 nm. […] Only the OD value of culture medium is used as background. The cytotoxicity of compounds was expressed as the concentration of the compounds that reduces cell viability to 50% (CC50).

For the next data set, the system named is B lymphocyte cells. Description: LPS-induced B-cell proliferation ([3H]-thymidine uptake). Format: cell-based, BALB/c mice. To be noted: Mus musculus, spleen cells stimulated with 10 µg/mL LPS. How it is done: as §1
As mentioned above, fresh spleen cells were obtained from female BALB/c mice (18–20 g). Similarly, the 5 × 10^5 spleen cells were cultured at the same conditions. The cultures, with or without various concentrations of compounds, were stimulated with 5 µg/mL of concanavalin A (ConA) to induce the T cells’ proliferative response or 10 µg/mL of lipopolysaccharide (LPS) to induce B cells’ proliferative response. Proliferation was assessed in terms of uptake of [^3H]-thymidine during 8 h of pulsing with 25 µL/well of [^3H]-thymidine, then cells will be harvested onto glass fiber filters. A Beta scintillation counter was used to count the incorporated radioactivity. Cells treated without any stimuli were used as a negative control. The immunosuppressive activity was expressed as the concentration of the compound that inhibited T or B cell proliferation to 50% (IC50) of the control value. Both the cytotoxicity and proliferation assessment were repeated twice.

The subject of another data set is T lymphocyte cells. Description: ConA-induced T-cell proliferation ([3H]-thymidine uptake). Format: cell-based, BALB/c mice. To be noted: Mus musculus, spleen cells stimulated with 5 µg/mL ConA, read-out: Con A-Induced T-Cell Proliferation IC50. How it is done:
as §1

As to `CC(=CCCC1(C)C2CCC(CO)C1C2)C(=O)O` (stereo not shown) [Compound 13, Craterodoratin M], the CC50 at 48 h in data set [1] is greater than 40 µM. Besides, in the data set with B lymphocyte cells, the IC50 stood at 15.4 ± 1.03 µM.
In the same order, the values of `CC(=CC1CC23C4CCC(C)(OC2O1)C3C4)C(=O)O` (stereo not shown) [Compound 23, donacinoic acid A] are greater than 40 µM and 13.2 ± 0.97 µM.
In the same order, the values of `CC(=CC(O)CC12COC3(CO)CCC1CC32)C(=O)O` (stereo not shown) [Compound 10, Craterodoratin J] are greater than 40 µM and 19.4 ± 0.48 µM.
As for `C=C1CCC2(O)CC1C2(C)CCC=C(C)C(=O)O` (stereo not shown) [Compound 15, Craterodoratin O], the CC50 at 48 h in data set [1] is greater than 40 µM. Moreover, the IC50 with B lymphocyte cells is 17.1 ± 1.14 µM.
In the same order, the values of `CC(=CCCC1(C)C2CCC(CO)C1(O)C2)C(=O)O` (stereo not shown) [Compound 14, Craterodoratin N] are greater than 40 µM and 13.3 ± 1.29 µM.
The compound `C=C1CCC2CC1C2(COC(C)=O)CC(O)C=C(C)C(=O)O` (stereo not shown) [Compound 17, Craterodoratin Q] returned a CC50 at 48 h in data set [1] greater than 40 µM. Besides, the IC50 with T lymphocyte cells was 31.5 ± 1.79 µM.
Compound `CC(=CC(O)CC12COC3(C)CCC1CC32)C(=O)O` (stereo not shown) [Compound 20, massarinolin B] showed a CC50 at 48 h in data set [1] greater than 40 µM. In addition, the values for the IC50 with T lymphocyte cells and in the data set on B lymphocyte cells were 0.98 ± 0.01 µM and 0.67 ± 0.004 µM, respectively.
In turn, `CC(=CC(=O)CC12C(=O)OC3(C)CCC1CC32)C(=O)O` (stereo not shown) [Compound 12, Craterodoratin L] gave a CC50 at 48 h in data set [1] greater than 40 µM. The compound further gave an IC50 with B lymphocyte cells of 13.7 ± 0.65 µM.
In the same order, the values of `C=C1C2CN(CC(=O)O)CC3C2C(C(C)C)CCC13C` (stereo not shown) [Compound 19, Craterodoratin S] are greater than 40 µM and 22.7 ± 1.67 µM.
In turn, `CC(=CCCC1(C)C2CCC(CO)(C2)C1O)C(=O)O` (stereo not shown) [Compound 3, Craterodoratin C] showed a melting point of 180.7 to 182.4 °C. Moreover, in data set [1], the CC50 at 48 h was greater than 40 µM. In the data set with B lymphocyte cells, this compound displayed an IC50 of 12.6 ± 1.14 µM.

Source of the values: publication PMC8707212, “Immunosuppressive Sesquiterpenoids from the Edible Mushroom Craterellus odoratus” (Journal of Fungi, 2021).
